From patent US11952364B2, “TRK inhibitors useful as anticancer drugs” (TYLIGAND BIOSCIENCE (SHANGHAI) LIMITED, priority 2018, dated 2024)
pIC50: −log10 of the molar value.

Each compound was assayed on KM12 cells (assay: Proliferation of KM12 cells (CellTiter-Glo)). Conditions: Homo sapiens, KM12, 72 h, Table 1; 72 hours; read-out: KM-12, IC50.
Assay type: cell-based, human
Source text: KM12 is a human colon cancer cell line in which NTRK1 is highly expressed, and gene fusion occurs with TPM3 to form TPM3-NTRK1. • [Test method]: Promega's CellTiter-Glo® Luminescent Cell Viability Assay kit was used to evaluate the inhibitory activity of the compounds on the proliferation of KM12 cells. • [Instrument]: Spectramax M3 multifunctional microplate reader from Molecular Devices. • [Test materials]: KM12 cell line (ATCC, item number CRL-12496), 96-well transparent flat-bottomed black-walled cell culture plate (Corning, item number #3603), RPMI-1640 media (GE, cat #SH30027.01), Fetal Bovine Serum FBS (Thermo Fisher, cat #10099-141), CellTiter-Glo® Luminescent Cell Viability Assay Kit (Promega, cat #G7572), PBS (Solarbio, cat #P1020), Trypsin (Thermo Fisher, cat #25200072), DMSO (Sigma, cat #D2650). • [Experimental procedure]: When resuscitating KM12 cells, the freezing tube was quickly shaken in a 37° C. water bath to melt within 1 minute. The thawed cell suspension was mixed uniformly with RPMI1640 medium containing 10% FBS, centrifuged at 1000 rpm for 5 minutes, and the supernatant discarded. 5 mL of complete medium (RPMI1640 medium with 10% FBS) was taken to resuspend the cell pellets, charged into a cell culture flask with a bottom area of 25 cm^2, and incubated in a cell incubator at 37° C., 95% humidity and 5% CO2. Cells were allowed to passage when the cell confluence rate reached about 80%. For cell passage, the old medium was discarded, and the cells were washed twice with PBS, and 0.5 mL trypsin was added to digest the cells. Upon dispersing into single cells and exfoliating from the bottom of the cell culture flask, 4.5 mL of new complete medium was added to terminate the digestion. After pipetting the cell suspension evenly, 1/5 of the cell suspension was kept and added with 4 mL of new complete medium, and after pipetting evenly, the cell flask was placed in the cell incubator for further culturing. Cell plating was performed when the cell confluence rate reached about 80% again. For cell plating, 1/5 of the cell suspension was kept for further culturing as in the cell passage method, and the remaining 4/5 of the cell suspension was placed in a 15 mL centrifuge tube, detected for cell viability by Trypan blue exclusion method to ensure that cell viability was above 90%. A cell suspension with a density of 3.33×10^4 viable cells/mL was prepared with complete medium, and 90 μL of such cell suspension was added to a 96-well cell culture plate to obtain a cell density of 3000 viable cells/mL in the cell culture plate. A control group containing no cells, no compound and only complete medium (i.e. culture medium control) and a control group containing no compound but containing cells (i.e. cell control) were set. The cell plate was placed in a cell incubator overnight.
The 10 mM compound stock solution in DMSO was first serially diluted with DMSO at a dilution factor of 3.16 times, to obtain 9 concentrations, and the 10th concentration was set as DMSO control without compound. Then, PBS was used to dilute the DMSO solutions of compounds of different concentrations, at a dilution factor of 100 times, so that the DMSO concentration in the compound solution of each concentration was 1%. Finally, 10 μL of each of the above solutions was added to the corresponding cell culture plate, so that the initial compound concentration was 10 μM, with the remaining concentrations being successively diluted at a dilution factor of 3.16 times, and the DMSO content in the cell culture plate was 0.1%.
The cell plate was placed in a cell incubator and cultured for 72 hours. For endpoint detection, the CellTiter-Glo reagent was melted, and the cell plate was moved to room temperature to equilibrate for 30 minutes, added with 100 μL of CellTiter-Glo for each well, and shaken on an orbital shaker for 5 minutes to fully lyse the cells. […]

Row | SMILES | pIC50
1 | Cn1ncc2cc(Oc3ccc(NC(=O)c4ccc(C(F)(F)F)n(-c5ccc(F)cc5)c4=O)cc3F)c(-c3cn[nH]c3)cc21 [Example 1, N-(3-fluoro-4-(1-methyl-6-(1H-pyrazol-4-yl)-1H-indazol-5-yloxy)phenyl)-1-(4-fluorophenyl)-6-trifluoromethyl-2-oxo-1,2-dihydmpyridine-3-carboxamide monomethanesulfonate] | 7.81
2 | Cn1ncc2cc(Oc3ccc(NC(=O)c4ccc(C5CC5)n(-c5ccc(F)cc5)c4=O)cc3F)c(-c3cn[nH]c3)cc21 [Example 2, N-(3-fluoro-4-(1-methyl-6-(1H-pyrazol-4-yl)-1H-indazol-5-yloxy)phenyl)-1-(4-fluorophenyl)-6-cyclopropyl-2-oxo-1,2-dihydmpyridine-3-carboxamide] | 8.04
3 | CCn1ncc2cc(Oc3ccc(NC(=O)c4ccc(C)n(-c5ccc(F)cc5)c4=O)cc3F)c(-c3cn[nH]c3)cc21 [Example 3, N-(3-fluoro-4-(1-ethyl-6-(1H-pyrazol-4-yl)-1H-indazol-5-yloxy)phenyl)-1-(4-fluorophenyl)-6-methyl-2-oxo-1,2-dihydmpyridine-3-carboxamide] | 7.78
4 | Cc1ccc(C(=O)Nc2ccc(Oc3cc4cnn(C(C)C)c4cc3-c3cn[nH]c3)c(F)c2)c(=O)n1-c1ccc(F)cc1 [Example 4, N-(3-fluoro-4-(1-isopropyl-6-(1H-pyrazol-4-yl)-1H-indazol-5-yloxy)phenyl)-1-(4-fluorophenyl)-6-methyl-2-oxo-1,2-dihydmpyridine-3-carboxamide] | 7.51
5 | CCc1ccc(C(=O)Nc2ccc(Oc3cc4cnn(C)c4cc3-c3cn[nH]c3)c(F)c2)c(=O)n1-c1ccc(F)cc1 [Example 5, N-(3-fluoro-4-(1-methyl-6-(1H-pyrazol-4-yl)-1H-indazol-5-yloxy)phenyl)-1-(4-fluorophenyl)-6-ethyl-2-oxo-1,2-dihydropyridine-3-carboxamide] | 8.29
6 | CC(C)c1ccc(C(=O)Nc2ccc(Oc3cc4cnn(C)c4cc3-c3cn[nH]c3)c(F)c2)c(=O)n1-c1ccc(F)cc1 [Example 6, N-(3-fluoro-4-(1-methyl-6-(1H-pyrazol-4-yl)-1H-indazol-5-yloxy)phenyl)-1-(4-fluorophenyl)-6-isopropyl-2-oxo-1,2-dihydropyridine-3-carboxamide] | 8.20

Same assay, conditions: Homo sapiens, KM12, Table 1-1; separate test; read-out: KM-12, IC50

Row | SMILES | pIC50
7 | COc1ccc(C(=O)Nc2ccc(Oc3cc4cnn(C)c4cc3-c3cn[nH]c3)c(F)c2)c(=O)n1-c1ccc(F)cc1 [Example 12, N-(3-fluoro-4-(1-methyl-6-(1H-pyrazol-4-yl)-1H-indazol-5-yloxy)phenyl)-1-(4-fluorophenyl)-6-methoxy-2-oxo-1,2-dihydropyridine-3-carboxamide] | 7.80
8 | CCc1ccc(C(=O)Nc2ccc(Oc3cc4cnn(CC)c4cc3-c3cn[nH]c3)c(F)c2)c(=O)n1-c1ccc(F)cc1 [Example 18, N-(3-fluoro-4-(1-ethyl-6-(1H-pyrazol-4-yl)-1H-indazol-5-yloxy)phenyl)-1-(4-fluorophenyl)-6-ethyl-2-oxo-1,2-dihydropyridine-3-carboxamide] | 7.49
9 | CCn1ncc2cc(Oc3ccc(NC(=O)c4ccc(C5CC5)n(-c5ccc(F)cc5)c4=O)cc3F)c(-c3cn[nH]c3)cc21 [Example 19, N-(3-fluoro-4-(1-ethyl-6-(1H-pyrazol-4-yl)-1H-indazol-5-yloxy)phenyl)-1-(4-fluorophenyl)-6-cyclopropyl-2-oxo-1,2-dihydropyridine-3-carboxamide] | 7.49
10 | CCn1ncc2cc(Oc3ccc(NC(=O)c4ccc(OC)n(-c5ccc(F)cc5)c4=O)cc3F)c(-c3cn[nH]c3)cc21 [Example 23, N-(3-fluoro-4-(1-ethyl-6-(1H-pyrazol-4-yl)-1H-indazol-5-yloxy)phenyl)-1-(4-fluorophenyl)-6-methoxy-2-oxo-1,2-dihydropyridine-3-carboxamide] | 7.49

Same assay, conditions: Homo sapiens, KM12, Table 1-2; separate test; read-out: KM-12, IC50

Row | SMILES | pIC50
11 | CSc1ccc(C(=O)Nc2ccc(Oc3cc4cnn(C)c4cc3-c3cn[nH]c3)c(F)c2)c(=O)n1-c1ccc(F)cc1 [Example 11, N-(3-fluoro-4-(1-methyl-6-(1H-pyrazol-4-yl)-1H-indazol-5-yloxy)phenyl)-1-(4-fluorophenyl)-6-methylthio-2-oxo-1,2-dihydropyidine-3-carboxamide] | 7.46
12 | CCOc1ccc(C(=O)Nc2ccc(Oc3cc4cnn(C)c4cc3-c3cn[nH]c3)c(F)c2)c(=O)n1-c1ccc(F)cc1 [Example 14, N-(3-fluoro-4-(1-methyl-6-(1H-pyrazol-4-yl)-1H-indazol-5-yloxy)phenyl)-1-(4-fluorophenyl)-6-ethoxy-2-oxo-12-dihydropyridine-3-carboxamide] | 7.62
13 | Cn1ncc2cc(Oc3ccc(NC(=O)c4ccc(OC5CC5)n(-c5ccc(F)cc5)c4=O)cc3F)c(-c3cn[nH]c3)cc21 [Example 15, N-(3-fluoro-4-(1-methyl-6-(1H-pyrazol-4-yl)-1H-indazol-5-yloxy)phenyl)-1-(4-fluorophenyl)-6-cyclopropoxy-2-oxo-1,2-dihydropyridine-3-carboxamide] | 7.77
14 | CC(C)Oc1ccc(C(=O)Nc2ccc(Oc3cc4cnn(C)c4cc3-c3cn[nH]c3)c(F)c2)c(=O)n1-c1ccc(F)cc1 [Example 16, N-(3-fluoro-4-(1-methyl-6-(1H-pyrazol-4-yl)-1H-indazol-5-yloxy)phenyl)-1-(4-fluorophenyl)-6-isopropoxy-2-oxo-1,2-dihydropyridine-3-carboxamide] | 8.15

Same assay, conditions: Homo sapiens, KM12, Table 1-3; separate test; read-out: KM-12, IC50

Row | SMILES | pIC50
15 | CCn1ncc2cc(Oc3ccc(NC(=O)c4ccc(OC(C)C)n(-c5ccc(F)cc5)c4=O)cc3F)c(-c3cn[nH]c3)cc21 [Example 26, N-(3-fluoro-4-(1-ethyl-6-(1H-pyrazol-4-yl)-1H-indazol-5-yloxy)phenyl)-1-(4-fluorophenyl)-6-isopropoxy-2-oxo-1,2-dihydropyridine-3-carboxamide] | 7.74

Same assay, conditions: Homo sapiens, KM12, Table 9; read-out: KM12 cell proliferation inhibitory activity (IC50)

Row | SMILES | pIC50
16 | COc1ccc(C(=O)Nc2ccc(Oc3cc4cnn5c4c(c3-c3cn[nH]c3)CC5)c(F)c2)c(=O)n1-c1ccc(F)cc1 [Example 28, N-(4-((5-(1H-pyrazol-4-yl)-6,7-dihydropyrrolo[3,2,1-hi]-indazol-4-yl)oxy)-3-fluorophenyl)-1-(4-fluorophenyl)-6-methoxy-2-oxo-1,2-dihydropyidine-3-carboxamide] | 7.25
17 | Cc1ccc(C(=O)Nc2ccc(Oc3cc4cnn5c4c(c3-c3cn[nH]c3)CC5)c(F)c2)c(=O)n1-c1ccc(F)cc1 [Example 31, N-(4-((5-(1H-pyrazol-4-yl)-6,7-dihydropyrrolo[3,2,1-hi]-indazol-4-yl)oxy)-3-fluorophenyl)-1-(4-fluorophenyl)-6-methyl-2-oxo-1,2-dihydropyridine-3-carboxamide] | 7.15
18 | CCOc1ccc(C(=O)Nc2ccc(Oc3cc4cnn5c4c(c3-c3cn[nH]c3)CC5)c(F)c2)c(=O)n1-c1ccc(F)cc1 [Example 32, N-(4-((5-(1H-pyrazol-4-yl)-6,7-dihydropyrrolo[3,2,1-hi]-indazol-4-yl)oxy)-3-fluorophenyl)-6-ethoxy-1-(4-fluorophenyl)-2-oxo-12-dihydropyridine-3-carboxamide] | 7.17

Same assay, conditions: Table 1-3; separate test; read-out: KM-12, IC50

Row | SMILES | pIC50
19 | CCOc1ccc(C(=O)Nc2ccc(Oc3cc4cnn(CC)c4cc3-c3cn[nH]c3)c(F)c2)c(=O)n1-c1ccc(F)cc1 [Example 24, N-(3-fluoro-4-(1-ethyl-6-(1H-pyrazol-4-yl)-1H-indazol-5-yloxy)phenyl)-1-(4-fluorophenyl)-6-ethoxy-2-oxo-12-dihydropyridine-3-carboxamide] | 7.64
